Measured values reported in a melting point compilation (Tetko et al.; mined from patent text by program, amines drawn as free bases though some values may be those of a salt).

Row | melting point | SMILES
1 | 201 °C | Cc1cc(C#N)cc(C(=O)Nc2ccn(C)n2)n1
2 | 300 to 301 °C | COCCn1cc2c(C3C(=O)Nc4ccc(Br)cc43)nc(NCc3cccnc3)nc2n1 (centres undefined)
3 | 193 to 196 °C | CC(=O)C1(O)CCC2C3CCC4=CC(=O)CCC4(C)C3C(Cl)CC21C (centres undefined)
4 | 118 to 121 °C | Cc1ccc(C(=S)Nc2cc(F)ccc2F)cc1
5 | 170 to 171 °C | O=C(O)CN1C(=O)C(NC(=O)C(Cc2ccccc2)SC(=O)c2ccccc2)CCc2ccccc21 (centres undefined)
6 | 191 to 194 °C | CN(CCO)CCn1nc2c3c(c(NCCNCCO)ccc31)C(=O)c1c(O)ccc(O)c1-2
7 | 161 to 163 °C | O=C(COc1cccc(-n2nc(-c3ccc(F)cc3)c3cccnc32)c1)NCCO
8 | 124 to 125 °C | CCCN1C(=O)N2C[C@@H](Cc3ccccc3)N=C2c2c1nc(N1CCCC1)n2Cc1ccccc1
9 | 65 to 67 °C | O=C(c1cc(C(F)(F)F)cc(C(F)(F)F)c1)N1CCN(C(=O)CNC2CCN(Cc3ccccc3)CC2)C(c2ccccc2)C1 (racemic)
10 | 90 to 92 °C | CCOC(=O)/C=C/c1ccc(OCC)nc1Oc1ccc(Cl)cc1Cl
11 | 93 to 95 °C | C=CC(=O)NCc1ccc(CC(=O)OCC)cc1
12 | 217 °C | COc1ccc(S(=O)(=O)C2(C(=O)O)CCN(Cc3ccc(-c4ccccn4)cc3)CC2)cc1
13 | 185 to 186 °C | O=C(Nc1c(C(O)(C(F)(F)F)C(F)(F)F)ccc2ccccc12)C1CCC1
14 | 195 to 200 °C | COc1ccc([N+](=O)[O-])c2[nH]ccc(=O)c12
15 | 198 °C | CCOCc1nc2c(N)nc3cc(N4CCCC4=O)cnc3c2n1CC(C)C
16 | 93 to 94 °C | Nc1ccc(Cl)cc1C(=O)C(F)(F)F
17 | 175 to 179 °C | Cc1cc(C(=O)O)ccc1N1CCN(C(=O)OC(C)(C)C)CC1
18 | 46.5 to 47 °C | COC(=O)c1ncoc1C

Row | melting point | SMILES
19 | 166 to 168 °C | COC(=O)c1ccc2nc(C)n(Cc3ccc(Cl)cc3OC)c2n1
20 | 138 to 140 °C | CC(C)(C)OC(=O)N1CCC(Oc2ccc(C(=O)Cc3ccccn3)cc2)CC1
21 | 133 °C | CCCN(CCC)C(=O)CCCN1CC[C@H](CNC(=O)c2ccc(N)cc2OC)[C@H](OC)C1 (relative stereo)
22 | 90 to 90.5 °C | COC(=O)c1ccc(OCc2ccccc2)cn1
23 | 127 to 130 °C | CC(C)(c1ccc2ncccc2c1)n1nnc2ccc(-c3ccc(C(N)=O)c(F)c3)nc21
24 | 181 to 183 °C | CCCc1nc2c(N)nc3c(c2n1CCCC(=O)N1CCOCC1)CCCC3
25 | 118 to 121 °C | C=C(CN1C(=O)c2ccccc2C1=O)c1ccccc1
26 | 123 °C | CC(=O)OC1CSC(Oc2ccc(F)nc2)C(OC(C)=O)C1OC(C)=O (centres undefined)
27 | 126 to 127 °C | CO[C@]1(c2cnc(S)s2)CCO[C@@H]1C (racemic)
28 | 159 °C | Cc1cccc(N2CCN(c3ccc(OCc4ccccc4)nn3)CC2)c1
29 | 155 to 158 °C | CCOCc1nc2c(N)nc3ccccc3c2n1CCCCS(N)(=O)=O
30 | 167 to 169 °C | CCOC(=O)c1c(N2CCOCC2)c2cc(Cl)ccc2n(C)c1=O
31 | 171 to 173 °C | Cc1ccc(Cl)cc1N1C(=O)C(=O)N(C)C1=S
32 | 204 to 205 °C | COc1cccc(Cc2nc3n(-c4c(Cl)cc(Cl)cc4Cl)[nH]c(C(C)C)c-3c(=O)n2)c1
33 | 119 to 121 °C | CCOC(=O)Cc1csc(NC(=O)C(F)(F)F)n1
34 | 101 to 102 °C | CCNC(=O)c1cc(C(F)(F)F)ccc1[Si](C)(C)C
35 | 129 °C | CC(c1ccccc1)C(CS)C(=O)NCC(=O)O (centres undefined)
36 | 212 to 215 °C | C=C(C)c1cn(C2OC(CO)C(O)C2O)c(=O)[nH]c1=O (centres undefined)

Row | SMILES | melting point
37 | CNC(=O)N1CC(=O)Nc2ccc([N+](=O)[O-])cc2C1c1ccccc1 (centres undefined) | 176 to 180 °C
38 | CC(=O)Nc1ccc(C#CCCN2CC=C(c3ccccc3)CC2)nc1 | 158 to 160 °C
39 | O=C(O)CNC(=O)c1c(O)n(C2CCCC2)c(=O)n(C2CCCCC2)c1=O | 222 to 224 °C
